Peptide text beside a SMILES is read from it.
Test system: HSV1
Format: cell-based, Human herpes simplex virus type 1
Experimental: African Green Monkey Kidney (Vero) cells were maintained in Eagle's minimum essential medium with Earle's salt (EMEM) and supplemented with 10% foetal calf serum (heat-inactivated), 4 mM L-glutamine, and 1% (v/v) nonessential amino acids, plus penicillin and streptomycin (100 IU/mg and […], respectively) (maintenance medium referred to as 10% EMEM). The cells were incubated at 37° C. in a humidified atmosphere of air with 5% CO2.
On harvesting, monolayers were washed in phosphate-buffered saline (PBS), and dislodged by incubating with trypsin in PBS for 30 min, before inactivating trypsin by addition of an equal volume of 10% EMEM and centrifuging at 500 g (5 min, 4° C.). Cell pellets were resuspended in 10% EMEM, prior to cell counting and seeding of 24-well plates. For antiviral assays, medium containing only 0.5% FCS was used (referred to as 0.5% EMEM).
Three separate passages of HSV1 virus were prepared by infecting Vero cells, and preparing semi-pure suspensions of virus from tissue culture supernatant and cell lysates, before freezing aliquots of virus at −85° C. Viral infectivity was assessed by carrying out plaque assays on serial dilutions of thawed aliquots (expressed in pfu/ml).
Peptides were obtained in lyophilised form from a commercial supplier (AltaBioscience, University of Birmingham or Advanced Biomedical), and were produced at 5 micromole scale. N-terminals were protected by addition of an acetyl group, and the C-terminals were protected by addition of an amide group.
Small quantities of peptide were weighed in sterile Eppendorf tubes, before addition of sufficient 0.5% EMEM to produce a 1.5 mM stock solution, which was frozen at −20° C. in aliquots.
Vero cells were seeded at 125,000 cells per well in 10% EMEM, and were incubated overnight resulting in confluent monolayers. […] Virus stocks (p3) were thawed, and diluted in 0.5% EMEM such that there were around 100 pfu in 100 μl. Each 24-well plate was inoculated separately. Firstly 100 μl of virus stock was added to the peptide or control medium arranged on a 96-well plate. This was incubated at 37° C. for ten minutes before inoculation. Medium was removed from four wells of a 24-well plate containing confluent Vero, and the 200 μl inoculum added to the appropriate well. Once all wells were treated, the 24-well plate was incubated for a further 60-80 minutes. Finally the peptide-containing inoculum was removed, and 1 ml of 1% EMEM containing 1% carboxymethylcellulose was added to each well. Plates were incubated for a further 22 hours or in some experiments 40 hours, before removal of overlay, and addition of 10% formaldehyde in PBS. After a further one hour incubation, fixative was removed, monolayers washed several times with tap water, and stained with carbol fuchsin solubilised in water. After 30 minutes stain was removed, and plates washed several times with tap water, before being air dried. Plaques were counted using an Olympus IX70 Inverting Microscope, and antiviral effect expressed as a percentage of the control value for each peptide concentration. The IC50 was calculated from plots of inhibitory effect against peptide concentration.

Row | SMILES | IC50 | efficacy for reducing HSV1 infectivity (in words) (Examples 2 and 3)
1 | CC[C@H](C)[C@H](NC(=O)[C@H](CO)NC(=O)[C@H](CO)NC(=O)[C@H](C)NC(=O)[C@H](CCCNC(=N)N)NC(=O)[C@H](CO)NC(=O)[C@H](Cc1ccccc1)NC(=O)[C@H](Cc1c[nH]cn1)NC(=O)[C@H](CC(=O)O)NC(=O)[C@H](CCC(N)=O)NC(=O)[C@H](CCSC)NC(=O)[C@@H](NC(=O)[C@H](CC(=O)O)NC(=O)[C@H](CC(C)C)NC(=O)[C@H](CCSC)NC(=O)[C@H](Cc1c[nH]cn1)NC(C)=O)C(C)C)C(=O)N[C@H](C(=O)N[C@@H](CC(=O)O)C(=O)N[C@@H](CCC(=O)O)C(=O)N[C@@H](CC(C)C)C(N)=O)[C@@H](C)CC [GIN 29] (Ac-HMLDVMQDHFSRASSIIDEL-NH2) | 38.5 µM | 
2 | CSCC[C@H](NC(=O)[C@H](CCSC)NC(=O)[C@H](CCCNC(=N)N)NC(=O)[C@H](CCCCN)NC(=O)[C@H](CCCNC(=N)N)NC(=O)[C@H](CCSC)NC(=O)[C@H](CCCCN)NC(=O)[C@H](CCCNC(=N)N)NC(=O)[C@H](CCSC)NC(=O)[C@H](CCSC)NC(=O)[C@H](CCSC)NC(=O)[C@H](CCCNC(=N)N)NC(=O)[C@H](CCCCN)NC(=O)[C@H](CCCNC(=N)N)NC(=O)[C@H](CCSC)NC(=O)[C@H](CCCCN)NC(=O)[C@H](CCCNC(=N)N)NC(=O)[C@H](CCSC)NC(C)=O)C(N)=O [GIN 40] (Ac-MRKMRKRMMMRKMRKRMM-NH2) | > 30 µM | 
3 | CC(=O)N[C@@H](Cc1ccc(O)cc1)C(=O)N[C@@H](CCCNC(=N)N)C(=O)N[C@@H](CCCCN)C(=O)N[C@@H](Cc1ccc(O)cc1)C(=O)N[C@@H](CCCNC(=N)N)C(=O)N[C@@H](CCCCN)C(=O)N[C@@H](CCCNC(=N)N)C(=O)N[C@@H](Cc1ccc(O)cc1)C(=O)N[C@@H](Cc1ccc(O)cc1)C(=O)N[C@@H](Cc1ccc(O)cc1)C(=O)N[C@@H](CCCNC(=N)N)C(=O)N[C@@H](CCCCN)C(=O)N[C@@H](Cc1ccc(O)cc1)C(=O)N[C@@H](CCCNC(=N)N)C(=O)N[C@@H](CCCCN)C(=O)N[C@@H](CCCNC(=N)N)C(=O)N[C@@H](Cc1ccc(O)cc1)C(=O)N[C@@H](Cc1ccc(O)cc1)C(N)=O [GIN 41] (Ac-YRKYRKRYYYRKYRKRYY-NH2) |  | also had efficacy
4 | CC(=O)N[C@@H](CC(C)C)C(=O)N[C@@H](CCCNC(=N)N)C(=O)N[C@@H](CCC(N)=O)C(=O)N[C@@H](CC(C)C)C(=O)N[C@@H](CCCNC(=N)N)C(=O)N[C@@H](CCC(N)=O)C(=O)N[C@@H](CCCNC(=N)N)C(=O)N[C@@H](CC(C)C)C(=O)N[C@@H](CC(C)C)C(=O)N[C@@H](CC(C)C)C(=O)N[C@@H](CCCNC(=N)N)C(=O)N[C@@H](CCC(N)=O)C(=O)N[C@@H](CC(C)C)C(=O)N[C@@H](CCCNC(=N)N)C(=O)N[C@@H](CCC(N)=O)C(=O)N[C@@H](CCCNC(=N)N)C(=O)N[C@@H](CC(C)C)C(=O)N[C@@H](CC(C)C)C(N)=O [GIN 44] (Ac-LRQLRQRLLLRQLRQRLL-NH2) | 40 µM | 
5 | CC(=O)N[C@@H](Cc1ccccc1)C(=O)N[C@@H](CCCNC(=N)N)C(=O)N[C@@H](CCCCN)C(=O)N[C@@H](Cc1ccccc1)C(=O)N[C@@H](CCCNC(=N)N)C(=O)N[C@@H](CCCCN)C(=O)N[C@@H](CCCNC(=N)N)C(=O)N[C@@H](Cc1ccccc1)C(=O)N[C@@H](Cc1ccccc1)C(=O)N[C@@H](Cc1ccccc1)C(=O)N[C@@H](CCCNC(=N)N)C(=O)N[C@@H](CCCCN)C(=O)N[C@@H](Cc1ccccc1)C(=O)N[C@@H](CCCNC(=N)N)C(=O)N[C@@H](CCCCN)C(=O)N[C@@H](CCCNC(=N)N)C(=O)N[C@@H](Cc1ccccc1)C(=O)N[C@@H](Cc1ccccc1)C(N)=O [MU 7] (Ac-FRKFRKRFFFRKFRKRFF-NH2) | > 30 µM | 
6 | CC[C@H](C)[C@H](NC(=O)[C@@H](NC(=O)[C@H](CCCNC(=N)N)NC(=O)[C@H](CCCCN)NC(=O)[C@H](CCCNC(=N)N)NC(=O)[C@@H](NC(=O)[C@H](CCCCN)NC(=O)[C@H](CCCNC(=N)N)NC(=O)[C@@H](NC(=O)[C@@H](NC(=O)[C@@H](NC(=O)[C@H](CCCNC(=N)N)NC(=O)[C@H](CCCCN)NC(=O)[C@H](CCCNC(=N)N)NC(=O)[C@@H](NC(=O)[C@H](CCCCN)NC(=O)[C@H](CCCNC(=N)N)NC(=O)[C@@H](NC(C)=O)[C@@H](C)CC)[C@@H](C)CC)[C@@H](C)CC)[C@@H](C)CC)[C@@H](C)CC)[C@@H](C)CC)[C@@H](C)CC)C(N)=O [MU 8] (Ac-IRKIRKRIIIRKIRKRII-NH2) | > 30 µM | 
7 | CC(=O)N[C@@H](CCC(N)=O)C(=O)N[C@@H](CCCNC(=N)N)C(=O)N[C@@H](CCCCN)C(=O)N[C@@H](CCC(N)=O)C(=O)N[C@@H](CCCNC(=N)N)C(=O)N[C@@H](CCCCN)C(=O)N[C@@H](CCCNC(=N)N)C(=O)N[C@@H](CCC(N)=O)C(=O)N[C@@H](CCC(N)=O)C(=O)N[C@@H](CCC(N)=O)C(=O)N[C@@H](CCCNC(=N)N)C(=O)N[C@@H](CCCCN)C(=O)N[C@@H](CCC(N)=O)C(=O)N[C@@H](CCCNC(=N)N)C(=O)N[C@@H](CCCCN)C(=O)N[C@@H](CCCNC(=N)N)C(=O)N[C@@H](CCC(N)=O)C(=O)N[C@@H](CCC(N)=O)C(N)=O [MU 9] (Ac-QRKQRKRQQQRKQRKRQQ-NH2) | > 30 µM | 
8 | CC(=O)N[C@@H](CC(N)=O)C(=O)N[C@@H](CCCNC(=N)N)C(=O)N[C@@H](CCCCN)C(=O)N[C@@H](CC(N)=O)C(=O)N[C@@H](CCCNC(=N)N)C(=O)N[C@@H](CCCCN)C(=O)N[C@@H](CCCNC(=N)N)C(=O)N[C@@H](CC(N)=O)C(=O)N[C@@H](CC(N)=O)C(=O)N[C@@H](CC(N)=O)C(=O)N[C@@H](CCCNC(=N)N)C(=O)N[C@@H](CCCCN)C(=O)N[C@@H](CC(N)=O)C(=O)N[C@@H](CCCNC(=N)N)C(=O)N[C@@H](CCCCN)C(=O)N[C@@H](CCCNC(=N)N)C(=O)N[C@@H](CC(N)=O)C(=O)N[C@@H](CC(N)=O)C(N)=O [MU 11] (Ac-NRKNRKRNNNRKNRKRNN-NH2) | 27.5 µM | 
9 | CC(=O)N[C@@H](CCCNC(=N)N)C(=O)N[C@@H](CCCNC(=N)N)C(=O)N[C@@H](CCCCN)C(=O)N[C@@H](CCCNC(=N)N)C(=O)N[C@@H](CCCNC(=N)N)C(=O)N[C@@H](CCCCN)C(=O)N[C@@H](CCCNC(=N)N)C(=O)N[C@@H](CCCNC(=N)N)C(=O)N[C@@H](CCCNC(=N)N)C(=O)N[C@@H](CCCNC(=N)N)C(=O)N[C@@H](CCCNC(=N)N)C(=O)N[C@@H](CCCCN)C(=O)N[C@@H](CCCNC(=N)N)C(=O)N[C@@H](CCCNC(=N)N)C(=O)N[C@@H](CCCCN)C(=O)N[C@@H](CCCNC(=N)N)C(=O)N[C@@H](CCCNC(=N)N)C(=O)N[C@@H](CCCNC(=N)N)C(N)=O [MU 16] (Ac-RRKRRKRRRRRKRRKRRR-NH2) | 7.5 µM | 
10 | CC(=O)N[C@@H](CCCCN)C(=O)N[C@@H](CCCNC(=N)N)C(=O)N[C@@H](CCCCN)C(=O)N[C@@H](CCCCN)C(=O)N[C@@H](CCCNC(=N)N)C(=O)N[C@@H](CCCCN)C(=O)N[C@@H](CCCNC(=N)N)C(=O)N[C@@H](CCCCN)C(=O)N[C@@H](CCCCN)C(=O)N[C@@H](CCCCN)C(=O)N[C@@H](CCCNC(=N)N)C(=O)N[C@@H](CCCCN)C(=O)N[C@@H](CCCCN)C(=O)N[C@@H](CCCNC(=N)N)C(=O)N[C@@H](CCCCN)C(=O)N[C@@H](CCCNC(=N)N)C(=O)N[C@@H](CCCCN)C(=O)N[C@@H](CCCCN)C(N)=O [MU 18] (Ac-KRKKRKRKKKRKKRKRKK-NH2) | 7.5 µM | 

Source: patent US7691382B2, “Antiviral polypeptides comprising tandem repeats of APOE 141-149 and variants thereof” (priority 2003, dated 2010)
